The results in this text go back to patent publication US20260226494A1 (HANGZHOU RUIFENG BIOSCIENCE CO., LTD., priority 2023, published 2026).

The subject of data set [1] is non-transgenic soybean variety Wandou 28. Kind of data set: Field herbicide tolerance test, single herbicides (Example 7). The text has this:
(§1) A randomized block design was adopted with a total of 24 plots, each measuring 4 m×5 m. […] A 1 m interval was set between adjacent plots, with three replicates for each soybean type. At the V3 growth stage, the following treatments were applied: 1) no herbicide application; 2) respective applications of glyphosate at 1800 g a.i./ha, MCPA at 1848 g a.i./ha, mesotrione at 123.75 g a.i./ha, penoxsulam at 45 g a.i./ha, nicosulfuron at 102 g a.i./ha, pyrazosulfuron-ethyl at 56.25 g a.i./ha, and flazasulfuron at 112.5 g a.i./ha. Seedling emergence rate, plant height (measured from the tallest 10 plants), and herbicide damage symptoms (evaluated from the 10 plants with the mildest symptoms) were investigated at 1, 2, and 4 weeks post-application. Herbicide damage symptom grading was performed according to GB/f 17980.42-2000. The formula for calculating herbicide damage rate was as follows:
(§2) [formula] • (×-herbicide damage rate in percentage; N-number of plants with the same level of herbicide damage; S-herbicide damage level; T-total number of plants evaluated; M-highest level)∘

Data set [2] concerns transgenic soybean event XP-2. Described as above. The conditions noted are these: for tolerance level of transgenic soybean event XP-2 to herbicides (in words): field test, Table 10 doses.
Source text: as §1, §2

Data set [3] deals with T1 generation of five transformation events (XP-2, XP-195, XP-325, XP-326, XP-552). Set-up: species or system Glycine max. Particulars: in vivo. The text has this:
At the V4 stage, 225 g a.i./ha of flazasulfuron was sprayed, and the tolerance of each transformant was observed.

Data set [4] relates to T1 generation soybean transgenic events. Particulars: in vivo.
For data set [5] the test system is unchanged. Put plainly: Flazasulfuron tolerance test on progeny of 54 single-copy events. The conditions noted are these: […] g a.i./ha. Set-up: dose or concentration left out as unconfirmed.
Data set [6] has as its system T0 transgenic soybean plants. Put plainly: Greenhouse glyphosate spray screen of T0 transgenic events. The data set is classed as in vivo, Glycine max. The conditions noted are these: 1800 g a.i./ha sprayed at V4 stage; 546 T0 events. The text has this: After hardening, 685 T0 generation transgenic events obtained from Example 1 were transplanted into natural soil in a greenhouse. Among them, 546 seedlings successfully survived in the greenhouse. When the T0 transgenic soybean plants reached the V4 vegetative stage, 1800 g a.i/ha ofglyphosate was sprayed.

The mark [7] stands for this setting: Wandou 28, 1 week after spraying at V3, doses as Table 10 c1.
Where [8] appears, read: Wandou 28, 2 weeks after spraying at V3, doses as Table 10 c1.
The mark [9] stands for this setting: Wandou 28, 4 weeks after spraying at V3, doses as Table 10 c1.
Setting [10] is: XP-2, 2 weeks after spraying at V3, doses as Table 10 c1.
The mark [11] stands for this setting: XP-2, 4 weeks after spraying at V3, doses as Table 10 c1.

`COc1cc(OC)nc(NC(=O)NS(=O)(=O)c2ncccc2C(F)(F)F)n1` [Flazasulfuron, flazasulfuron]: in data set [1] (in vivo), the Seedling rate % is 0%, the “damage rate(%) After 1 week” value is recorded as 100%, the “damage rate(%) After 2 weeks” value is listed as 100% and the “damage rate(%) After 4 weeks” value stood at 100%. In data set [2] (in vivo), the “Height(cm) After 1 week” value is given as 12.49 ± 0.35 cm, the “Height(cm) After 2 weeks” value stood at 14.74 ± 0.2 cm, the “Height(cm) After 4 weeks” value is 21.69 ± 0.32 cm and the Seedling rate % is 100%. Further, in data set [2] (in vivo), the “damage rate(%) After 1 week” value is listed as 0%, the “damage rate(%) After 2 weeks” value is recorded as 0% and the “damage rate(%) After 4 weeks” value is 0%. In data set [3], the “tolerance of each transformant (in words)” value was “XP-2 exhibited the highest tolerance”. In data set [4], the “Number of Events: No phytotoxicity” value is recorded as 5 and the “Number of Events: having phytotoxicity, New leaves getting yellow” value was found to be 49. Besides, the “Number of Events: Plant death” value in data set [5] turned out to be 0.

Turning to `O=C(O)CNCP(=O)(O)O` [Glyphosate, glyphosate], in data set [1] (setting [7]), the “damage rate(%) After 1 week” value is recorded as 100%. Moreover, in data set [1] (setting [8]), the “damage rate(%) After 2 weeks” value is 100%. For the same compound, the “damage rate(%) After 4 weeks” value in data set [1] (setting [9]) is reported as 100%. Further, in data set [2] (setting [10]), the “Height(cm) After 2 weeks” value stood at 14.58 ± 0.24 cm and the “damage rate(%) After 2 weeks” value is 0%. In data set [2] (setting [11]), the “Height(cm) After 4 weeks” value is 21.6 ± 0.52 cm and the “damage rate(%) After 4 weeks” value came to 0%. The “tolerance level of transgenic soybean event XP-2 to herbicides (in words)” value (from here on “tolerance level”) in data set [2] is “high tolerance”. For the same compound, in data set [6], the “Number of Events: Growth stunted, dwarfed plants (phytotoxicity)” value is 327; the “Number of Events: Plant death” value is reported as 132; the “Number of Events: no phytotoxicity” value came out at 87.

As for `Cc1cc(Cl)ccc1OCC(=O)O` [MCPA], the “damage rate(%) After 1 week” value in data set [1] (setting [7]) is given as 100%. For the same compound, the “damage rate(%) After 2 weeks” value in data set [1] (setting [8]) stood at 100%. In data set [1] (setting [9]), the “damage rate(%) After 4 weeks” value amounted to 100%. Also, in data set [2] (setting [10]), the “Height(cm) After 2 weeks” value worked out at 14.7 ± 0.32 cm and the “damage rate(%) After 2 weeks” value worked out at 0%. Besides, in data set [2] (setting [11]), the “Height(cm) After 4 weeks” value stood at 21.6 ± 0.52 cm and the “damage rate(%) After 4 weeks” value came out at 0%. In data set [2], the “tolerance level” value is reported as “high tolerance”.

Turning to `CS(=O)(=O)c1ccc(C(=O)C2C(=O)CCCC2=O)c([N+](=O)[O-])c1` [Mesotrione, mesotrione], the “damage rate(%) After 1 week” value in data set [1] (setting [7]) is reported as 100%. Moreover, the results for the “damage rate(%) After 2 weeks” value in data set [1] (setting [8]) and in data set [2] (setting [10]) were 100% and 0%, respectively. In addition, the “damage rate(%) After 4 weeks” value in data set [1] (setting [9]) came to 100%; in data set [2] (setting [11]), 0%. Moreover, in data set [2] (setting [10]), the “Height(cm) After 2 weeks” value is 14.59 ± 0.24 cm. The “Height(cm) After 4 weeks” value in data set [2] (setting [11]) is recorded as 21.63 ± 0.52 cm. For the same compound, in data set [2], the “tolerance level” value was “high tolerance”.

With `COc1cc(OC)nc(NC(=O)NS(=O)(=O)c2ncccc2C(=O)N(C)C)n1` [Nicosulfuron, nicosulfuron], in data set [1] (setting [7]), the “damage rate(%) After 1 week” value is 100%. Besides, the “damage rate(%) After 2 weeks” value in data set [1] (setting [8]) is recorded as 100%. Moreover, the “damage rate(%) After 4 weeks” value in data set [1] (setting [9]) is 100%. Besides, in data set [2] (setting [10]), the “Height(cm) After 2 weeks” value is 14.73 ± 0.24 cm and the “damage rate(%) After 2 weeks” value is 0%. For the same compound, in data set [2] (setting [11]), the “Height(cm) After 4 weeks” value is 21.66 ± 0.53 cm and the “damage rate(%) After 4 weeks” value amounted to 0%. Moreover, in data set [2], the “tolerance level” value is given as “high tolerance”.

In the case of `COc1cnc(OC)n2nc(NS(=O)(=O)c3c(OCC(F)F)cccc3C(F)(F)F)nc12` [Penoxsulam, penoxsulam], in data set [1] (in vivo), the Seedling rate % was determined as 0%, the “damage rate(%) After 1 week” value came out at 100%, the “damage rate(%) After 2 weeks” value worked out at 100% and the “damage rate(%) After 4 weeks” value was 100%. Also, in data set [2] (in vivo), the “Height(cm) After 1 week” value is 12.75 ± 1.01 cm, the “Height(cm) After 2 weeks” value came to 14.6 ± 0.24 cm, the “Height(cm) After 4 weeks” value was 21.61 ± 0.52 cm and the Seedling rate % was determined as 100%. Also, in data set [2] (in vivo), the “damage rate(%) After 1 week” value amounted to 0%, the “damage rate(%) After 2 weeks” value is reported as 0% and the “damage rate(%) After 4 weeks” value turned out to be 0%.

Take `CCOC(=O)c1cnn(C)c1S(=O)(=O)NC(=O)Nc1nc(OC)cc(OC)n1` [Pyrazosulfuron-ethyl, pyrazosulfuron-ethyl]: the “damage rate(%) After 1 week” value in data set [1] (setting [7]) is listed as 100%. Moreover, the “damage rate(%) After 2 weeks” value in data set [1] (setting [8]) was 100%. The “damage rate(%) After 4 weeks” value in data set [1] (setting [9]) was found to be 100%. In addition, in data set [2] (setting [10]), the “Height(cm) After 2 weeks” value came out at 14.6 ± 0.24 cm and the “damage rate(%) After 2 weeks” value stood at 0%. Further, in data set [2] (setting [11]), the “Height(cm) After 4 weeks” value turned out to be 21.63 ± 0.52 cm and the “damage rate(%) After 4 weeks” value is reported as 0%. The “tolerance level” value in data set [2] was “high tolerance”.
